Source: patent US10051857B2, “Formulation component” (SYNGENTA LIMITED, priority 2011, dated 2018)

Legend:
Format in all cases: in vivo
[1] = system: Abutilon theophrasti (ABUTH); assay: Glasshouse adjuvant test with fomesafen (Example 5); conditions: fomesafen 60 or 120 g/ha, adjuvant 0.2% v/v or none, 200 l/ha; growth stage 12; mean over two rates, three replicates, 7, 14 and 21 days
Description: (§1) Compound 1 (N, N-diethyl-3-methylbenzamide) was tested in a glasshouse against four weed species using the herbicide fomesafen. An agrochemical composition was prepared containing 0.2% v/v of the adjuvant in a track sprayer and was applied at a volume of 200 liters per hectare. Fomesafen was applied at either 60 or 120 grams of pesticide per hectare on each of the weed species. The weed species and their growth stage at spraying were Chenopodium album (CHEAL; growth stage 13/14), Abutilon theophrasti (ABUTH; growth stage 12), Setaria viridis (SETVI; growth stage 13), and Xanthium strumarium (XANST; growth stage 12).
(§2) Each spray test was replicated three times. The efficacy of the herbicide was assessed visually and expressed as a percentage of the leaf area killed. Samples were assessed at time periods of 7, 14 and 21 days following application. The results shown in Table 5 below are mean averages over the two rates of fomesafen, three replicates and the three assessment timings, and are compared to the efficacy of fomesafen in the absence of adjuvant.

[2] = system: Chenopodium album (CHEAL); assay: as above; conditions: fomesafen 60 or 120 g/ha, adjuvant 0.2% v/v or none, 200 l/ha; growth stage 13/14; mean over two rates, three replicates, 7, 14 and 21 days
Description: as §1, §2

Setaria viridis (SETVI) [3] = assay: as above; conditions: fomesafen 60 or 120 g/ha, adjuvant 0.2% v/v or none, 200 l/ha; growth stage 13; mean over two rates, three replicates, 7, 14 and 21 days
Description: as §1, §2

[4] = system: Xanthium strumarium (XANST); assay: as above; conditions: fomesafen 60 or 120 g/ha, adjuvant 0.2% v/v or none, 200 l/ha; growth stage 12; mean over two rates, three replicates, 7, 14 and 21 days
Description: as §1, §2

[5] = system: four weed species (CHEAL, ABUTH, SETVI, XANST); assay: Glasshouse adjuvant test with fomesafen (Example 5), mean across species; conditions: fomesafen 60 or 120 g/ha, adjuvant 0.2% v/v or none
Description: as §1, §2

[6] = system: four weed species (AMATE, BRADE, DIGSA, POLCO); assay: Glasshouse adjuvant test with mesotrione (Example 6), mean across species; conditions: mesotrione 45 or 90 g/ha, adjuvant 0.2% v/v or none
[7] = system: Abutilon theophrasti (ABUTH); assay: Glasshouse adjuvant test with nicosulfuron (Example 7); conditions: nicosulfuron 30 or 60 g/ha, adjuvant 0.2% v/v or none, 200 l/ha; growth stage 13; mean over two rates, three replicates, 14 and 21 days
Description: (§3) Compound 1 was tested in a glasshouse against four weed species using the herbicide nicosulfuron. A 20% w/w stock emulsion of compound 1 was prepared additionally containing 2% w/w Gohsenol® GL03 and 2% w/w Pluronic® PE10500 as surfactants. Using this, an agrochemical composition was prepared containing 0.2% v/v of the adjuvant in a track sprayer and was applied at a volume of 200 liters per hectare. Nicosulfuron was applied at either 30 or 60 grams of pesticide per hectare on each of the weed species. The weed species and their growth stage at spraying were Abutilon theophrasti (ABUTH; growth stage 13), Chenopodium album (CHEAL; growth stage 14), Digitaria sanguinalis (DIGSA; growth stage 13), and Setaria viridis (SETVI; growth stage 13).
(§4) Each spray test replicated three times. The efficacy of the herbicide was assessed visually and expressed as a percentage of the leaf area killed. Samples were assessed at time periods of 14 and 21 days following application. The results shown in Table 7 below are mean averages over the two rates of nicosulfuron, three replicates and the two assessment timings, and are compared to the efficacy of nicosulfuron in the absence of an adjuvant.

[8] = system: Chenopodium album (CHEAL); assay: as above; conditions: nicosulfuron 30 or 60 g/ha, adjuvant 0.2% v/v or none, 200 l/ha; growth stage 14; mean over two rates, three replicates, 14 and 21 days
Description: as §3, §4

[9] = system: Digitaria sanguinalis (DIGSA); assay: as above; conditions: nicosulfuron 30 or 60 g/ha, adjuvant 0.2% v/v or none, 200 l/ha; growth stage 13; mean over two rates, three replicates, 14 and 21 days
Description: as §3, §4

Setaria viridis (SETVI) [10] = assay: as above; conditions: nicosulfuron 30 or 60 g/ha, adjuvant 0.2% v/v or none, 200 l/ha; growth stage 13; mean over two rates, three replicates, 14 and 21 days
Description: as §3, §4

[11] = system: four weed species (ABUTH, CHEAL, DIGSA, SETVI); assay: Glasshouse adjuvant test with nicosulfuron (Example 7), mean across species; conditions: nicosulfuron 30 or 60 g/ha, adjuvant 0.2% v/v or none
Description: as §3, §4

[12] = system: Alopecurus myosuroides (ALOMY); assay: Glasshouse adjuvant test with pinoxaden (Example 8); conditions: pinoxaden 7.5 or 15 g/ha, adjuvant 0.2% v/v or none, 200 l/ha; growth stage 13; mean over two rates, three replicates, 14 and 21 days
Description: (§5) The adjuvant shown in example 1 was tested in a glasshouse against four weed species in combination with the herbicide pinoxaden. A 20% w/w stock emulsion of compound 1 was prepared additionally containing 2% w/w Gohsenol® GL03 and 2% w/w Pluronic® PE10500 as surfactants. Using this, an agrochemical composition was prepared containing 0.2% v/v of the adjuvant in a track sprayer and was applied at a volume of 200 liters per hectare. Pinoxaden was applied at either 7.5 or 15 grams of pesticide per hectare on each of the weed species. The weed species and their growth stage at spraying were Alopecurus myosuroides (ALOMY; growth stage 13), Avena fatua (AVEFA; growth stage 12); Lolium perenne (LOLPE; growth stage 13), Setaria viridis (SETVI; growth stage 14).
as §2, with “of” for “of 7,”, “Table 8” for “Table 5 below”, “of pinoxaden,” for “of fomesafen,”, “the two” for “the three”, “of pinoxaden” for “of fomesafen”

Avena fatua (AVEFA) = assay: as above; conditions: pinoxaden 7.5 or 15 g/ha, adjuvant 0.2% v/v or none, 200 l/ha; growth stage 12; mean over two rates, three replicates, 14 and 21 days
Description: as §5
as §2, with “of” for “of 7,”, “Table 8” for “Table 5 below”, “of pinoxaden,” for “of fomesafen,”, “the two” for “the three”, “of pinoxaden” for “of fomesafen”

Lolium perenne (LOLPE) = assay: as above; conditions: pinoxaden 7.5 or 15 g/ha, adjuvant 0.2% v/v or none, 200 l/ha; growth stage 13; mean over two rates, three replicates, 14 and 21 days
Description: as §5
as §2, with “of” for “of 7,”, “Table 8” for “Table 5 below”, “of pinoxaden,” for “of fomesafen,”, “the two” for “the three”, “of pinoxaden” for “of fomesafen”

Setaria viridis (SETVI) [13] = assay: as above; conditions: pinoxaden 7.5 or 15 g/ha, adjuvant 0.2% v/v or none, 200 l/ha; growth stage 14; mean over two rates, three replicates, 14 and 21 days
Description: as §5
as §2, with “of” for “of 7,”, “Table 8” for “Table 5 below”, “of pinoxaden,” for “of fomesafen,”, “the two” for “the three”, “of pinoxaden” for “of fomesafen”

[14] = system: four weed species (ALOMY, AVEFA, LOLPE, SETVI); assay: Glasshouse adjuvant test with pinoxaden (Example 8), mean across species; conditions: pinoxaden 7.5 or 15 g/ha, adjuvant 0.2% v/v or none
Description: as §5
as §2, with “of” for “of 7,”, “Table 8” for “Table 5 below”, “of pinoxaden,” for “of fomesafen,”, “the two” for “the three”, “of pinoxaden” for “of fomesafen”

CCN(CC)C(=O)c1cccc(C)c1 [Compound 1, N, N-diethyl-3-methylbenzamide]
Mean percentage kill ABUTH [1]: 38.9%
Mean percentage kill CHEAL [2]: 80.3%
Mean percentage kill SETVI (Setaria viridis (SETVI) [3]): 15.8%
Mean percentage kill XANST [4]: 35.6%
Mean percentage kill, Mean across species [5]: 42.6%
Mean percentage kill, Mean across species [6]: 54.1%
Mean percentage kill ABUTH [7]: 72.9%
Mean percentage kill CHEAL [8]: 63.8%
Mean percentage kill DIGSA [9]: 89.4%
Mean percentage kill SETVI (Setaria viridis (SETVI) [10]): 93.4%
Mean percentage kill, Mean across species [11]: 81.3%
Mean percentage kill ALOMY [12]: 22.5%
Mean percentage kill AVEFA (Avena fatua (AVEFA)): 29.2%
Mean percentage kill LOLPE (Lolium perenne (LOLPE)): 20.8%
Mean percentage kill SETVI (Setaria viridis (SETVI) [13]): 15.8%
Mean percentage kill, Mean across species [14]: 22.1%
